Experimental data as given in patent US10288626B2, “Secreted tumor-associated cytochrome as a blood-based biomarker for cancer” (University of Kentucky Research Foundation, priority 2012, dated 2019).

Columns and labels:
tumor cells = details: cited from earlier work
NCI-H226 cells = test: Viability / growth of NCI-H226 squamous cell lung cancer cells treated with AG-205; type: cell-based; details: 96 hours
Description: FIG. 2 depicts Pgrmc1 expression and biological activity in SCLC cell lines. (A) Pgrmc1 expression was tested in a group of 3 commonly used SCLC cell lines (upper panel), and ku70 was used as a loading control (lower panel). […] Cells were maintained in medium lacking serum for the indicated time and in all cases, viability was determined by cell counting. (C) Pgrmc1 expression was inhibited by siRNA transfection (upper panel, lane 2) relative to the control transfection (upper panel, lane 1). […] Cells were maintained in media lacking serum for the indicated times. (E) The expression of the exogenous Pgrmc1-hbd protein was detected by western blot in NCI-H226 cells infected with a control adenovirus (lane 1), encoding LacZ, or the Pgrmc1-hbd expression virus (lane 2). The top panel was probed with an antibody to the HA epitope tag sequence, with which Pgrmc1-hbd is fused. (F) NCI-H226 cells were treated with increasing doses of the Pgrmc1 inhibitor AG-205 and maintained with serum (dashed line) or without serum (solid line) for 96 hours.
Tissue culture: […], SK-MES-1 and SW900 squamous cell lung cancer cells and A549 lung adenocarcinoma cells were obtained from the American type culture collection (ATCC) and cultured according to their instructions. The identities of the cell lines were confirmed by Genetica DNA Laboratories (Cincinnati, Ohio). […]
Conditioned media from control and Pgrmc1 knockdown A549 NSCLC cells were generated by incubating cells in serum-free DMEM media for 24 hours. […] For fluorescent activated cell sorting (FACS), cells were stained with propidium iodide and analyzed as described (Mallory et al., Mol Pharmacol 2005, 68: 1747-56). […] For viability assays, cells were plated in 24 well dishes, washed with PBS and harvested by trypsinization and counted using a hemocytometer. Where indicated, cells were plated in 96 well dishes, and viability was measured by 3-(4,5-Dimethylthiazol-2-yl)-2,5-diphenyltetrazolium bromide (MTT) assay, as described (Hand and Craven. J Cell Biochem 2003, 90:534-47).

EGFR = details: cited from earlier work

Cc1ccc2c(c1)[C@H]1CN(C)CC[C@H]1N2C(=O)CSc1nnnn1-c1ccc(Cl)cc1 [AG-205]
effect on growth in tumor cells (tumor cells): inhibits growth | IC50 (NCI-H226 cells; absence of serum, read-out: IC50, growth inhibition of NCI-H226 cells): 9 µM | effect on viability of NCI-H226 cells (NCI-H226 cells; absence of serum, increasing doses): loss of viability | activity on growth of NCI-H226 cells (NCI-H226 cells; presence of serum): minimal activity | effect on EGFR levels (EGFR): decreases EGFR levels
